Measured values reported in patent US20210078972A1, “QUINOLINE OR QUINAZOLINE COMPOUND AND APPLICATION THEREOF” (HAIHE BIOPHARMA CO., LTD., priority 2018, published 2021).

Experiments:
Flt3 kinase = biological target: T1, Flt3 kinase (Homo sapiens, UniProt P36888); test: Flt3 kinase inhibition, Z'-LYTE FRET; type: biochemical; details: ATP 500 μM
T1 construct: purchased life PV6253
T1 sequence (P36888 27-993): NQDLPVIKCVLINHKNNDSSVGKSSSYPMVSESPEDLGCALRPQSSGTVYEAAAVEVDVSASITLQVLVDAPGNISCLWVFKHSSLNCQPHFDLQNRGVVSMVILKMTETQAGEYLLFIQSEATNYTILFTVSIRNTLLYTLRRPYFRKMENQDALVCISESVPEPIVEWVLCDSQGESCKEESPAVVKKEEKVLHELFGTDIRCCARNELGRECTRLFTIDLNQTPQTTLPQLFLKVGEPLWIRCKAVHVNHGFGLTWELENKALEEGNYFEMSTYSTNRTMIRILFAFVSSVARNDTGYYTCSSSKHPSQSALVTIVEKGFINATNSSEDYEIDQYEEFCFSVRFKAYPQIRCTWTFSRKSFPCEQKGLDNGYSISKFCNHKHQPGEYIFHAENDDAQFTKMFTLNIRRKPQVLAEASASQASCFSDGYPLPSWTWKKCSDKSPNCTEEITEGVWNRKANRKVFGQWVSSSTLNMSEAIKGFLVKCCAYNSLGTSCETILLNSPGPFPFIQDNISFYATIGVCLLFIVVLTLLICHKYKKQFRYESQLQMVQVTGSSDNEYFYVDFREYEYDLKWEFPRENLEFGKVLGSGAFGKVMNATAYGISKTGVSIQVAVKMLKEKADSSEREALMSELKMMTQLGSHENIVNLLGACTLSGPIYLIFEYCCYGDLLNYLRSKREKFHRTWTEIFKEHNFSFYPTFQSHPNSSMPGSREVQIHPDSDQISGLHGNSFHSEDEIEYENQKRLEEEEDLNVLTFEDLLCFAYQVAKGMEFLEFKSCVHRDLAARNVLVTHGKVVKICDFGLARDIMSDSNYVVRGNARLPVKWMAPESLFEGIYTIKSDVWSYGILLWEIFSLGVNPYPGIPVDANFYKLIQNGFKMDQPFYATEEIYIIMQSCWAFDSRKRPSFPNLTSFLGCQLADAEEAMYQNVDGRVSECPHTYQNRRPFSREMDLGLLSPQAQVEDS
Description: Detection of the activity of kinase: the inhibitory activities of the compounds against Flt3 kinase (life, PV6253) were detected through a second-order reaction by the Z′-LYTE™ technology (detected by fluorescence, enzyme-coupled form, based on the difference in a sensitivity of phosphorylated and non-phosphorylated polypeptides to proteolytic cleavage), based on the principle of fluorescence resonance energy transfer (FRET), using Z′-LYTE™ FRET peptide substrate (Z′-LYTE™ Tyrosine 2 Peptide Substrate, Invitrogen, PV3191).
Enzymatic reaction: To a 384-well plate were added 5 μL of enzyme-substrate system (50 mM HEPES, pH 7.5, 0.01% BRU-35, 10 mM MgC2, 1 mM EGTA), 2.5 μL of a compound (concentration gradient) and 2.5 μL of a mixed solution of ATP (a final concentration of a substrate Z′-LYTE™ Tyrosine 2 Peptide Substrate was 2 μM, and a final concentration of ATP was 500 μM), and then the plate was incubated at 37° C. in the dark for 1 h.
Detecting reaction: 5 μL of Development Solution (1:64 dilution) was added to each well and the plate was incubated at 37° C. in the dark for 1 h, then 5 μL of Stop Reagent was added.
The data analysis method is as follows:
Phosphorylation ratio=1−{(emission ratio×F100%−C100%)/[C0%−C100%+emission ratio×(F100%−F0%)]}×100;
Inhibition rate=100×(1−compound phosphorylation ratio/negative control phosphorylation ratio).
The IC50 values were calculated by GraphPad Prism software.

[1] = test system: Mixed primary macaca fascicularis hepatocytes; test: Metabolism in monkey hepatocytes, UPLC-UV/Q-TOF MS; type: in vitro ADME; details: 180 min
Procedure: (§1) In this example, a UPLC-UV/Q-TOF MS method was used to evaluate the differences in the metabolic processes of TL134 in hepatocytes of five species of human, monkey, canine, rat, and mouse.
(§2) The total volume of each incubation sample was 100 μL, the medium was WME medium (pH 7.4), and the incubation sample included hepatocytes with a cell density of 1.0×10^6 cells/mL and TL134 with a final concentration of 3.0 μM; the negative control sample was incubated with thermal-inactivated mixed hepatocytes (without cell counting) of five species of animals and TL134, and the buffer control sample was incubated with WME medium and TL134. All samples were incubated at 37° C. for 180 min, and then 100 μL of ice-cold acetonitrile was added to stop the reaction. The samples were stored at −70° C. for ready to be tested, and all incubation samples were double samples.
(§3) Triple TOF 5600′ quadrupole-time-of-flight tandem mass spectrometer (Q-TOF MS), equipped with electrospray ionization source (ESI source) and CDS automatic calibration system, AB SCIEX Company, USA; Acquity UPLC liquid chromatography system, including binary infusion pump, autosampler, column oven, degasser and TUV ultraviolet detector, Waters Company, USA. […]

[2] = test system: Mixed primary male beagle canine hepatocytes; test: Metabolism in canine hepatocytes, UPLC-UV/Q-TOF MS; type: in vitro ADME; details: 180 min
Procedure: as §1, §2, §3

CCc1ccc2c(c1)c(=O)c(C(=O)Nc1ccc(Oc3ncnc4cc(OCCCN5CCOCC5)c(OC)cc34)c(F)c1)c(C)n2C [GDL5000123, 6-ethyl-N-(3-fluoro-4-((6-methoxy-7-(3-morpholinopropoxy)quinazolin-4-yl)oxy)phenyl)-1,2-dime thyl-4-oxo-1,4-dihydroquinoline-3-carboxamide, reference compound]
IC50 (Flt3 kinase): 10 nM
prototype drug metabolized, judging from the UV chromatographic peak areas [1]: approximately 41.3%
prototype drug metabolized, judging from the UV chromatographic peak areas [2]: ~27.2%

COc1cc2c(Oc3ccc(NC(=O)c4c(C)n(C)c5ccc(OC(F)(F)F)cc5c4=O)cc3F)ncnc2cc1OCCCN1CCOCC1 [TL-134, N-(3-fluoro-4-((6-methoxy-7-(3-morpholinopropoxy)quinazolin-4-yl)oxy)phenyl)-1,2-dim ethyl-4-oxo-6-(trifluoromethoxy)-1,4-dihydroquinoline-3-carboxamide]
IC50 (Flt3 kinase): 1.9 nM
prototype drug metabolized, judging from the UV chromatographic peak areas [1]: ~4.6%
prototype drug metabolized, judging from the UV chromatographic peak areas [2]: ~15.4%
